From patent US11420970B1 (NOVARTIS AG, priority 2019, dated 2022) come the findings set out here.

In one experiment the target is NSD2 [1-1365] (Homo sapiens (Human), UniProt O96028). Put plainly: LC-MS/MS-based NSD2 enzymatic assay (SAH production). Type of experiment: biochemical. As to conditions: read-out: NSD2 IC50. The method in brief: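 SAH formed was measured by LC-MS/MS using d4-SAH as internal standard and an SAH calibration curve. Compounds were preincubated 20 min with NSD2 [1-1365] and SAM; mouse-liver nucleosome then started a 90 min room-temperature reaction (8 nM enzyme, 1 μM SAM, 400 nM nucleosome final, pH 8.0), stopped with TFA.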
Chain of NSD2 [1-1365] (O96028 whole entry): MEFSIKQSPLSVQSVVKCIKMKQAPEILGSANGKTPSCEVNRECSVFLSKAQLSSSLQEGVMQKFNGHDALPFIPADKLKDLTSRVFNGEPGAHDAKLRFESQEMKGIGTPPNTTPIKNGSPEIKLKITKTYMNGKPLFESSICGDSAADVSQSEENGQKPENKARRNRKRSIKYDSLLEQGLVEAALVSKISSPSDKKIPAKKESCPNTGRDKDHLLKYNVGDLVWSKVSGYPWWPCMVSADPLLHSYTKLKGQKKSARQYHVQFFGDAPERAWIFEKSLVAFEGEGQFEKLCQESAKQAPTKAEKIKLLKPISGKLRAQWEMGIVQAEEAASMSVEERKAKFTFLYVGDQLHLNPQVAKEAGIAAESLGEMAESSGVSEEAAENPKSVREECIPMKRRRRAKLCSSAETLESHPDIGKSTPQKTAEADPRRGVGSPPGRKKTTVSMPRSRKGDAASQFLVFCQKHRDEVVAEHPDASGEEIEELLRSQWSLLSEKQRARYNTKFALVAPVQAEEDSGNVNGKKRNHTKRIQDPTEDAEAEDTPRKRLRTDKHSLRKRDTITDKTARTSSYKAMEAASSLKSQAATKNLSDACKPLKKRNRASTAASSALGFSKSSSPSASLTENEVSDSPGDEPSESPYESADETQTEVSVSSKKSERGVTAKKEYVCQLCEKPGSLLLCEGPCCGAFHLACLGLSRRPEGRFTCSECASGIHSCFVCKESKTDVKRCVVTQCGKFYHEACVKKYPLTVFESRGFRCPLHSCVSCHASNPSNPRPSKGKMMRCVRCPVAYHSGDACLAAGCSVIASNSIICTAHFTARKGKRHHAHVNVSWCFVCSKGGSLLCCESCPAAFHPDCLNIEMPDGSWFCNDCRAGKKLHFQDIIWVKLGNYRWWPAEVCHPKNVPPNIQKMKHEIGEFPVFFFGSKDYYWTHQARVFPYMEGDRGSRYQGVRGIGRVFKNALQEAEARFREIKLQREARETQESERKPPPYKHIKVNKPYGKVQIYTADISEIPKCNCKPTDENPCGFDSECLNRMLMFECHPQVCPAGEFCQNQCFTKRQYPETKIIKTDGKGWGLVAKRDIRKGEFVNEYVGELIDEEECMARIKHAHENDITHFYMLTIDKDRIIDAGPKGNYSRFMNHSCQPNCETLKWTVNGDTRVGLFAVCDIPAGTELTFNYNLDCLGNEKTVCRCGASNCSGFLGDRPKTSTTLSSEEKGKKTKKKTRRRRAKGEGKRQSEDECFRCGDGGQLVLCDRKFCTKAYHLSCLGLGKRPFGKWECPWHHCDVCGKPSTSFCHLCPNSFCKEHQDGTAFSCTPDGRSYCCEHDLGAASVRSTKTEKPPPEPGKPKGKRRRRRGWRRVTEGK

Experiment [1] relates to cellular H3K36me2 level in multiple myeloma cell line KMS11 (t(4;14)+). Put plainly: H3K36me2 cellular FRET assay in KMS11-Par line. Type of experiment: cell-based. As to conditions: Homo sapiens. The method, then: H3K36Me2 Cellular FRET Assay in KMS11-Par Line
Fluorescence Resonance Energy Transfer (FRET) assay was used to test the ability of candidate compound to reduce cellular H3K36me2 level in multiple myeloma cell line KMS11 (t(4;14)+) (Horizon Discovery Ltd.).
Cells were treated with tested compounds at the desired concentration for 48 hours. […] Histone extract was incubated with Eu labeled anti-H3K36me2 antibody (abcam #ab ab9049) and d2 labeled anti-H3 antibody (abcam #ab1791) for 1 hour at room temperature. A Eu labeled anti-H3 antibody (CISBIO #64CUS000) was used for loading control. The abundancy of H3K36me2 or total H3 was measured by fluorescence signal on Perkin Elmer Envison machine.

For experiment [2], the system named is cellular H3K36me2 level in thyroid carcinoma cell line CGTH-W-1 (NSD2 E1099K). Put plainly: H3K36me2 cellular ELISA assay in CGTH-W-1 line. In kind it is cell-based. As to conditions: Homo sapiens, CGTH-W-1, 72 h, read-out: H3K36me2 ELISA in CGTH-W-1. The method in brief: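 After 72 h compound treatment of NSD2 E1099K-mutant CGTH-W-1 cells, H3K36me2 and total H3 were quantified by ELISA with chemiluminescent read-out. A parallel-seeded plate gave cell viability by CellTiter-Glo.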

Experiment [3] concerns cellular H3K36me2 level in multiple myeloma cell line KMS11 (t(4;14)+). Put plainly: H3K36me2 cellular ELISA assay in KMS11-Par line. In kind it is cell-based. As to conditions: Homo sapiens, read-out: H3K36me2 ELISA in KMS11-Par. A digest of the protocol: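 After 72 h compound exposure, HCl-extracted histones from KMS11 (t(4;14)+) cells were probed by ELISA for H3K36me2 against total H3 with a chemiluminescence read-out. Cells were plated at 1,250/well in Opti-MEM plus B-27 and N2 the day before. A parallel CellTiter-Glo plate tracked viability.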

[4] abbreviates: NSD2 biochemical activity, class symbols.
Where [5] appears, read: KMS-11, KMS11-Par line, cellular H3K36me2 level, FRET, read-out: H3K36me2 FRET in KMS11-Par.
The mark [6] stands for this setting: KMS-11, KMS11-Par line (t(4;14)+), 72 hours treatment, ELISA.
Where [7] appears, read: KMS-11, KMS11-Par line, FRET, read-out: H3K36me2 FRET in KMS11-Par.

Like-named read-outs stand apart in the source and are kept apart here.

Consider `COc1ccc(-c2cc(Cn3cnc4c(N)ncnc43)c(N3CCC[C@@H](N)C3)cn2)cc1F` [Example 1, (R)-9-((5-(3-aminopiperidin-1-yl)-2-(3-fluoro-4-methoxyphenyl)pyridin-4-yl)methyl)-9H-purin-6-amine], for which the IC50 at NSD2 [1-1365] (setting [4]) was 10 to 1000 nM; in experiment [1] (KMS-11, read-out: H3K36me2 FRET in KMS11-Par), 3030 nM; in experiment [2], 750 nM; in experiment [3] (KMS-11, 72 h), 4090 nM.
Turning to `COc1ccc(-c2cc(Cn3cnc4c(N)ncnc43)c(N3CC[C@@H](F)[C@@H](N)C3)cn2)cc1F` [Example 5, 9-((5-((3S,4R)-3-amino-4-fluoropiperidin-1-yl)-2-(3-fluoro-4-methoxyphenyl)pyridin-4-yl)methyl)-9H-purin-6-amine], the IC50 on NSD2 [1-1365] (setting [4]) is 10 to 1000 nM; in experiment [1] (setting [5]), 6460 nM; in experiment [2], 1770 nM.
With `COC[C@@]1(N)CCCN(c2cnc(-c3cc(Cl)ccc3F)cc2Cn2cnc3c(N)ncnc32)C1` [Example 26, (R)-9-((5-(3-amino-3-(methoxymethyl)piperidin-1-yl)-2-(5-chloro-2-fluorophenyl)pyridin-4-yl)methyl)-9H-purin-6-amine], the results for the IC50 (at NSD2 [1-1365] (setting [4]); in experiment [1] (setting [5]); in experiment [3] (setting [6])) were 1 to 10 nM, 248 nM and 375 nM, respectively.
`Nc1ncnc2c1ncn2Cc1cc(-c2ccc(F)c(F)c2)ncc1N1CCC[C@](N)(COC2CCC2)C1` [Example 30, (R)-9-((5-(3-amino-3-(cyclobutoxymethyl)piperidin-1-yl)-2-(3,4-difluorophenyl)pyridin-4-yl)methyl)-9H-purin-6-amine]: the IC50 on NSD2 [1-1365] (setting [4]) was 1 to 10 nM; in experiment [1] (setting [5]) it was 569 nM; in experiment [2], 659 nM; in experiment [3] (setting [6]) it was 2030 nM.
In the same order, the values of `COc1ccc(-c2cc(Cn3cnc4c(N)ncnc43)c(N3CCC[C@](N)(COC4CCC4)C3)cn2)cc1F` [Example 32, (R)-9-((5-(3-amino-3-(cyclobutoxymethyl)piperidin-1-yl)-2-(3-fluoro-4-methoxyphenyl)pyridin-4-yl)methyl)-9H-purin-6-amine] are 1 to 10 nM, 270 nM, 196 nM and 728 nM.
In the case of `CC(C)OC[C@@]1(N)CCCN(c2cnc(-c3ccc(F)cc3)cc2Cn2cnc3c(N)ncnc32)C1` [Example 37, (R)-9-((5-(3-amino-3-(isopropoxymethyl)piperidin-1-yl)-2-(4-fluorophenyl)pyridin-4-yl)methyl)-9H-purin-6-amine], the IC50 was 10 to 1000 nM on NSD2 [1-1365] (setting [4]), 614 nM in experiment [1] (setting [5]) and 1400 nM in experiment [3] (setting [6]).
`Nc1ncnc2c1ncn2Cc1cc(-c2ccc(F)c(F)c2)ncc1N1CCC[C@](N)(COC(F)F)C1` [Example 41, (R)-9-((5-(3-amino-3-((difluoromethoxy)methyl)piperidin-1-yl)-2-(3,4-difluorophenyl)pyridin-4-yl)methyl)-9H-purin-6-amine]: the figures for the IC50 (on NSD2 [1-1365] (setting [4]); in experiment [1] (setting [5]); in experiment [3] (setting [6])) were 10 to 1000 nM, 1090 nM and 2310 nM, respectively.
With `COc1ccc(-c2cc(Cn3cnc4c(N)ncnc43)c(N3CCC[C@](N)(COC(F)F)C3)cn2)cc1F` [Example 42, (R)-9-((5-(3-amino-3-((difluoromethoxy)methyl)piperidin-1-yl)-2-(3-fluoro-4-methoxyphenyl)pyridin-4-yl)methyl)-9H-purin-6-amine], the IC50 at NSD2 [1-1365] (setting [4]) is 10 to 1000 nM; in experiment [1] (setting [5]) it was 1230 nM; in experiment [2], 789 nM; in experiment [3] (setting [6]) it was 10700 nM.
With `Nc1ncnc2c1ncn2Cc1cc(-c2ccc(F)c(F)c2)ncc1N1CCC[C@](N)(Cc2ccccn2)C1` [Example 54, (S)-9-((5-(3-amino-3-(pyridin-2-ylmethyl)piperidin-1-yl)-2-(3,4-difluorophenyl)pyridin-4-yl)methyl)-9H-purin-6-amine], the IC50 on NSD2 [1-1365] (setting [4]) was 1 to 10 nM; in experiment [1] (setting [5]), 450 nM; in experiment [3] (setting [6]) it was 780 nM.
For `COc1ccc(-c2cc(Cn3cnc4c(N)ncnc43)c(N3CCC[C@](N)(CC(F)F)C3)cn2)cc1F` [Example 61, (S)-9-((5-(3-amino-3-(2,2-difluoroethyl)piperidin-1-yl)-2-(3-fluoro-4-methoxyphenyl)pyridin-4-yl)methyl)-9H-purin-6-amine], the IC50 on NSD2 [1-1365] (setting [4]) is 10 to 1000 nM; in experiment [1] (setting [5]), 1420 nM; in experiment [2], 643 nM.
For `Nc1ncnc2c1ncn2Cc1cc(-c2ccc(F)cc2)ncc1N1CCC[C@](N)(CC(F)F)C1` [Example 71, (S)-9-((5-(3-amino-3-(2,2-difluoroethyl)piperidin-1-yl)-2-(4-fluorophenyl)pyridin-4-yl)methyl)-9H-purin-6-amine], the IC50 at NSD2 [1-1365] (setting [4]) is 10 to 1000 nM; in experiment [1] (setting [5]), 849 nM.
In the same order, the values of `CNC(=O)CC1(N)CCCN(c2cnc(-c3ccc(F)c(F)c3)cc2Cn2cnc3c(N)nccc32)C1` (stereo not shown) [Example 72, 2-(3-amino-1-(4-((4-amino-1H-imidazo[4,5-c]pyridin-1-yl)methyl)-6-(3,4-difluorophenyl)pyridin-3-yl)piperidin-3-yl)-N-methylacetamide] are 10 to 1000 nM and 250000 nM.
As for `COC(=O)[C@@]1(N)CCCN(c2cnc(-c3cccc(F)c3)cc2Cn2cnc3c(N)ncnc32)C1` [Example 79, methyl (R)-3-amino-1-(4-((6-amino-9H-purin-9-yl)methyl)-6-(3-fluorophenyl)pyridin-3-yl)piperidine-3-carboxylate], the IC50 at NSD2 [1-1365] (setting [4]) is 1 to 10 nM; in experiment [1] (setting [5]), 473 nM.
For `COc1ccc(-c2cc(Cn3cnc4c(N)ncnc43)c(N3CCC[C@](N)(C(=O)N(C)C)C3)cn2)cc1F` [Example 80, (R)-3-amino-1-(4-((6-amino-9H-purin-9-yl)methyl)-6-(3-fluoro-4-methoxyphenyl)pyridin-3-yl)-N,N-dimethylpiperidine-3-carboxamide], in that order: 1 to 10 nM and 4950 nM.
In the case of `COc1ccc(-c2cc(Cn3cnc4c(N)ncnc43)c(N3CCC[C@](N)(C(=O)OC(C)C)C3)cn2)cc1F` [Example 81, isopropyl (R)-3-amino-1-(4-((6-amino-9H-purin-9-yl)methyl)-6-(3-fluoro-4-methoxyphenyl)pyridin-3-yl)piperidine-3-carboxylate], the IC50 is 1 to 10 nM at NSD2 [1-1365] (setting [4]) and 115 nM in experiment [1] (setting [5]).
For `COc1ccc(-c2cc(Cn3cnc4c(N)ncnc43)c(N3CCC[C@](N)(C(=O)OC(C)(C)C)C3)cn2)cc1F` [Example 83, tert-butyl (R)-3-amino-1-(4-((6-amino-9H-purin-9-yl)methyl)-6-(3-fluoro-4-methoxyphenyl)pyridin-3-yl)piperidine-3-carboxylate], in that order: 10 to 1000 nM and 956 nM.
In the same order, the values of `CO/N=C(\C)C1(N)CCCN(c2cnc(-c3ccc(OC)c(F)c3)cc2Cn2cnc3c(N)ncnc32)C1` (stereo not shown) [Example 96, (E)-1-(3-amino-1-(4-((6-amino-9H-purin-9-yl)methyl)-6-(3-fluoro-4-methoxyphenyl)pyridin-3-yl)piperidin-3-yl)ethan-1-one O-methyl oxime] are 10 to 1000 nM and 2400 nM.
As for `COc1ccc(-c2cc(Cn3cnc4c(N)ncnc43)c(N3CCCC(N)(C(C)F)C3)cn2)cc1F` (stereo not shown) [Example 295, 9-((5-(3-amino-3-(1-fluoroethyl)piperidin-1-yl)-2-(3-fluoro-4-methoxyphenyl)pyridin-4-yl)methyl)-9H-purin-6-amine], the IC50 on NSD2 [1-1365] is 10 to 1000 nM; in experiment [1] (setting [7]), 2330 nM; in experiment [3] (KMS-11, KMS11-Par line, ELISA, 72 hours) it was 1860 nM.
Regarding `CSCC1(N)CCCN(c2cnc(-c3ccc(F)c(F)c3)cc2Cn2cnc3c(N)ncnc32)C1` (stereo not shown) [Example 297, 9-((5-(3-amino-3-((methylthio)methyl)piperidin-1-yl)-2-(3,4-difluorophenyl)pyridin-4-yl)methyl)-9H-purin-6-amine], the results for the IC50 (on NSD2 [1-1365]; in experiment [1] (setting [7])) were 10 to 1000 nM and 2350 nM, respectively.
As to `COc1ccc(-c2cc(Cn3cnc4c(N)ncnc43)c(N3CCC[C@](N)(CC(F)(F)F)C3)cn2)cc1F` [Example 303, (S)-9-((5-(3-amino-3-(2,2,2-trifluoroethyl)piperidin-1-yl)-2-(3-fluoro-4-methoxyphenyl)pyridin-4-yl)methyl)-9H-purin-6-amine], the results for the IC50 (on NSD2 [1-1365]; in experiment [1] (setting [7])) were 10 to 1000 nM and 5370 nM, respectively.
